Laboratory results from BigSolDB 2.1.

Cc1ccc(-c2ncc(Cl)cc2-c2ccc(S(C)(=O)=O)cc2)cn1
solubility (mole fraction)
Settings	293.2 K	298.2 K	303.2 K	308.2 K	313.2 K
in 1,4-butanediol	0.0605	0.0723	0.0873	0.104	0.124
in 1,4-dioxane	0.0445	0.073	0.111	0.173	0.265
in DMAc	0.0481	0.0811	0.141	0.236	0.387
in DMF	0.0369	0.069	0.122	0.215	0.374
in DMSO	0.0292	0.0605	0.126	0.253	0.495
in NMP	0.0658	0.108	0.169	0.265	0.411
in ethanol	0.0337	0.0537	0.0807	0.121	0.182
in ethylene glycol	0.113	0.119	0.129	0.139	0.153
in formamide	0.0586	0.113	0.225	0.425	0.779
in glycerin	0.0558	0.0566	0.0577	0.0593	0.0625
in isopropanol	0.0282	0.0452	0.0668	0.1	0.149
in methanol	0.0241	0.0379	0.0561	0.0843	0.125
in n-propanol	0.0505	0.0788	0.111	0.164	0.238
in propylene glycol	0.0472	0.0605	0.0754	0.0942	0.117
in water	1.36e-05	1.58e-05	1.86e-05	2.12e-05	2.44e-05

Settings	solubility (mole fraction)
in PEG-200, 293.2 K	0.116
in PEG-200, 298.2 K	0.135
in PEG-200, 303.2 K	0.156
in PEG-200, 308.2 K	0.176
in PEG-200, 313.2 K	0.201
in PEG-400, 293.2 K	0.211
in PEG-400, 298.2 K	0.238
in PEG-400, 303.2 K	0.275
in PEG-400, 308.2 K	0.311
in PEG-400, 313.2 K	0.351
in PEG-600, 293.2 K	0.329
in PEG-600, 298.2 K	0.354
in PEG-600, 303.2 K	0.389
in PEG-600, 308.2 K	0.422
in PEG-600, 313.2 K	0.456
